Reference: paper PMC7442133, “Reduced treatment frequencies with bumped kinase inhibitor 1369 are effective against porcine cystoisosporosis” (International Journal for Parasitology: Drugs and Drug …, 2020)
Where “and” joins values, the source holds several entries; their conditions need not be identical. Identical values can stand only once. Entries after “also recorded” stand apart in the source; their conditions may differ.

Experiments:
[1] = test system: C. suis sporozoites; assay: Invasion inhibition: sporozoites pre-incubated with BKI 1369, free merozoites counted 9 dpi in IPEC-1 cultures; type: cell-based, Cystoisospora suis
Method: The laboratory strain C. suis Wien I ([Joachim and Mundt, 2011]), was maintained by passage in suckling piglets every 3–6 months and infectivity in vivo was assessed regularly at the Institute of Parasitology, University of Veterinary Medicine, Vienna. Oocysts were purified from collected feces, brought to sporulation and stored as described elsewhere ([Worliczek et al., 2013]). For in vitro studies, sporozoites were excysted ([Worliczek et al., 2013]), enumerated with a hemocytometer and used immediately for infection of semi-permanent intestinal porcine epithelial cells (IPEC-1). For in vivo studies, sporulated oocysts were washed with tap water and enumerated prior to infection of piglets.
IPEC-1 cells were maintained in culture medium at 37 °C and 5% CO2 (DHEM/HAM12 supplemented with 5% fetal calf serum and penicillin/streptomycin; Gibco via Thermo Fisher, Vienna, Austria). Cells (4 × 10^4) were used to seed 24-well plates and grown to confluence. […] Cell viability in the presence of DMSO and BKIs was determined by colorimetric cell proliferation (WST-1) assays ([Shrestha et al., 2019]). […]
In order to test whether BKI 1369 affects initial host cell invasion by C. suis, freshly excysted sporozoites were pre-incubated with BKI 1369 or DMSO for 6 h at 37 °C. […] Readout for both growth (merozoite replication) and invasion-inhibition experiments was microscopical evaluation by counting free merozoites 9 days post-infection (dpi) from culture supernatants. Supernatants were collected and free merozoites were counted in pooled samples at 9 dpi from quadruplicate wells in C-Chip disposable hemocytometers (NanoEnTek/Roth Lactan, Graz, Austria). […]
Statistical calculations for in vivo trials were performed with RStudio version 1.1.453 (RStudio Team, 2018), descriptive statistics with Microsoft Excel 2010 (Microsoft Inc., Vienna, Austria) and GraphPad Prism version 5.04 for Windows (GraphPad Software, San Diego, California USA). […] In vitro assays were evaluated by t-tests with significance reported at P < 0.05. […]

[2] = test system: C. suis (strain Wien-I); assay: Oocyst excretion of experimentally infected suckling piglets (autofluorescence, modified McMaster); type: in vivo, Cystoisospora suis; settings: for Start of oocyst excretion (study day): controls started SD 8
[3] = Body weight development of experimentally infected suckling piglets; type: in vivo; settings: for BW SD 8 / BW SD 15 / BW SD 22 / BW SD 29 / BW SD 1: SD in brackets; for BW SD 1: before treatment
[4] = Post-treatment observations for adverse events; type: in vivo, piglets
Method: For both experiments, post-treatment observations for any adverse events such as swelling/bleeding of the iron injection site, inability to stand, walk, suckle or other abnormal behavior, including dyspnoea, vomiting, limping, lateral recumbency, signs of pain, distress or neurological alterations ([Oldham, 1985]), were conducted under blinded conditions by a veterinarian at 2 h, 24 h and 48 h after treatment. In addition, all piglets were observed daily during the course of the studies to ensure good health, and any condition that required veterinary intervention was recorded and addressed.

[5] = Exp I group B: 1 × 20 mg/kg BW oral, SD 5 (2 dpi)
[6] = Exp II group W: 1 × 20 mg/kg BW oral, SD 5 (2 dpi)
[7] = single treatment 20 mg/kg BW 2 dpi
[8] = single treatment 20 mg/kg BW on the day of infection
[9] = Exp I group A: 1 × 20 mg/kg BW, SD 3 (0 dpi)
[10] = Exp I group B: 1 × 20 mg/kg BW, SD 5 (2 dpi)
[11] = Exp I group C: 2 × 20 mg/kg BW, SD 5 & 7 (2 & 4 dpi)
[12] = Exp II group W: 1 × 20 mg/kg BW, SD 5 (2 dpi)
[13] = Exp II group X: 1 × 10 mg/kg BW, SD 5 (2 dpi)
[14] = Exp II group Y: 1 × 5 mg/kg BW, SD 5 (2 dpi)

CCOc1ccc2cc(-c3nn(CC4CCN(C)CC4)c4ncnc(N)c34)ccc2n1 [BKI 1369]
Pre-incubation concentrations that significantly reduced total merozoite counts at 9 dpi ([1]; sporozoites pre-incubated 6 h at 37 °C, washed, IPEC-1, P < 0.05 vs DMSO-only and no-treatment): ≥ 200 nM
Pre-incubation concentrations that completely failed to inhibit host cell invasion ([1]; sporozoites pre-incubated 6 h at 37 °C, washed, IPEC-1, vs DMSO-only and no-treatment): ≤ 100 nM
Inhibition of infection in vitro by pre-incubation of sporozoites ([1]; unless treatment was prolonged post-infection): completely failed to inhibit the infection
Start of oocyst excretion (study day) ([2]; Exp I group A: 1 × 20 mg/kg BW day of infection): 11 SD
Mean AUC for OpG ([2]; Exp I group A: 1 × 20 mg/kg BW oral, SD 3 (0 dpi)): 4861.8
Number of excretion days ± SD (mean duration of oocyst excretion) ([2]; Exp I group A: 1 × 20 mg/kg BW oral, SD 3 (0 dpi), 20 mg/kg): 1 ± 1.6 days and 1 ± 1.56 days
Piglets that excreted oocysts ([2]; Exp I group A: 1 × 20 mg/kg BW, day of infection): 50%
Number of piglets that excreted oocysts ([2]; Exp I group B: 1 × 20 mg/kg BW 2 dpi, 11 piglets): two
Start of oocyst excretion (study day) ([2]; Exp I group B: 1 × 20 mg/kg BW 2 dpi): 16 SD
Mean AUC for OpG [2, 5]: 333
Number of excretion days ± SD [2, 5]: 0.45 ± 1.03 days
Oocyst excretion (in words) ([2]; Exp I group C: two doses of 20 mg/kg BW at 2 and 4 dpi, 20 mg/kg): completely suppressed oocyst excretion
Number of piglets that excreted oocysts ([2]; Exp II group W: 1 × 20 mg/kg BW 2 dpi, 10 piglets, excreted only once on SD 16): one
Mean AUC for OpG [2, 6]: 99.9
Number of excretion days ± SD [2, 6]: 0.1 ± 0.32 days
Oocyst excretion (in words) ([2]; Exp II group W: single dose of 20 mg/kg BW 2 dpi): effectively suppressed
Mean AUC for OpG ([2]; Exp II group X: 1 × 10 mg/kg BW oral, SD 5 (2 dpi)): 20129.85
Number of excretion days ± SD (mean duration of oocyst excretion) ([2]; Exp II group X: 1 × 10 mg/kg BW oral, SD 5 (2 dpi), 10 mg/kg): 1.3 ± 2.7 days and 1.3 ± 2.75 days
Piglets that excreted oocysts ([2]; Exp II group X: 1 × 10 mg/kg BW, 2 dpi): 50%
Number of piglets that excreted oocysts ([2]; Exp II group X: single dose of 10 mg/kg BW 2 dpi): 5 out of 10
Mean AUC for OpG ([2]; Exp II group Y: 1 × 5 mg/kg BW oral, SD 5 (2 dpi)): 56610
Number of excretion days ± SD (mean duration of oocyst excretion) ([2]; Exp II group Y: 1 × 5 mg/kg BW oral, SD 5 (2 dpi), 5 mg/kg): 3.6 ± 1.9 days and 3.6 ± 1.94 days
Piglets that excreted oocysts ([2]; Exp II group Y: 1 × 5 mg/kg BW, 2 dpi): 90%
Control of parasitic shedding and diarrhea (in words) ([2]; single application of 5 mg/kg BW 2 dpi): completely failed to control parasitic shedding and diarrhea
Piglets in which oocyst excretion was suppressed [2, 7]: 82%
Reduction of quantitative oocyst excretion in those that shed oocysts [2, 7]: 98.4%
Piglets in which oocyst excretion was suppressed [2, 8]: 50%
Reduction of quantitative oocyst excretion in those that shed oocysts [2, 8]: 95.2%
Minimal effective dose against cystoisosporosis ([2]; single treatment 2 dpi, piglets): 10 mg/kg BW
BW SD 8 [3, 9]: 2604 [283.8] g
BW SD 15 [3, 9]: 4198.4 [573.9] g
BW SD 22 [3, 9]: 6082 [750.1] g
BW SD 29 [3, 9]: 7956 [750.22] g
BW SD 1 [3, 9]: 1276 [227.4] g
BWG SD 8 to 15 (mean body weight gain, acute phase of infection) ([3]; Exp I group A: 1 × 20 mg/kg BW, SD 3 (0 dpi), control D 1042 g, 20 mg/kg): 1594 g and 1594.4 g
BW SD 8 [3, 10]: 2530.9 [362.3] g
BW SD 15 [3, 10]: 4292.7 [724.9] g
BW SD 22 [3, 10]: 5892.7 [1225.6] g
BW SD 29 [3, 10]: 7721.8 [1710.2] g
BW SD 1 [3, 10]: 1214.5 [206.9] g
BWG SD 8 to 15 (mean body weight gain, acute phase of infection) ([3]; Exp I group B: 1 × 20 mg/kg BW, SD 5 (2 dpi), control D 1042 g, 20 mg/kg): 1762 g and 1761.8 g
BW SD 8 [3, 11]: 2494.5 [328.9] g
BW SD 15 [3, 11]: 4267.3 [491.6] g
BW SD 22 [3, 11]: 5950.9 [619.6] g
BW SD 29 [3, 11]: 7867.3 [851.9] g
BW SD 1 [3, 11]: 1163.6 [205.5] g
BWG SD 8 to 15 (mean body weight gain, acute phase of infection) ([3]; Exp I group C: 2 × 20 mg/kg BW, SD 5 & 7 (2 & 4 dpi), control D 1042 g, 20 mg/kg): 1773 g and 1772.7 g
BW SD 8 [3, 12]: 3148.0 [610.4] g
BW SD 15 [3, 12]: 5140.0 [830.8] g
BW SD 22 [3, 12]: 6952.0 [1204.0] g
BW SD 29 [3, 12]: 9242.0 [1250.4] g
BW SD 1 [3, 12]: 1606.0 [347.4] g
BWG SD 8 to 15 (mean body weight gain, acute phase of infection) ([3]; Exp II group W: 1 × 20 mg/kg BW, SD 5 (2 dpi), control Z 389 g, 20 mg/kg): 1992 g and 1992.0 g
BW SD 8 [3, 13]: 1968.0 [632.7] g
BW SD 15 [3, 13]: 4606.0 [745.5] g
BW SD 22 [3, 13]: 6502.0 [1068.4] g
BW SD 29 [3, 13]: 8752.0 [2465.6] g
BW SD 1 [3, 13]: 1472.0 [353.0] g
BWG SD 8 to 15 (mean body weight gain, acute phase of infection) ([3]; Exp II group X: 1 × 10 mg/kg BW, SD 5 (2 dpi), control Z 389 g, 10 mg/kg): 1638 g and 1638.0 g
BW SD 8 [3, 14]: 2771.1 [654.5] g
BW SD 15 [3, 14]: 3891.1 [990.8] g
BW SD 22 [3, 14]: 5782.2 [1340.1] g
BW SD 29 [3, 14]: 8055.6 [1626.8] g
BW SD 1 [3, 14]: 1444.4 [391.1] g
BWG SD 8 to 15 (mean body weight gain, acute phase of infection) ([3]; Exp II group Y: 1 × 5 mg/kg BW, SD 5 (2 dpi), control Z 389 g, 5 mg/kg): 1120 g and 1120.0 g
Body weight gain compared to control piglets (in words) ([3]; irrespective of time points and frequencies of treatment): significant increase in body weight gain
Treatment-related adverse effects that required veterinary intervention ([4]; 5, 10 or 20 mg/kg BW, one or two oral doses, whole study period): No piglets showed treatment-related adverse effects; also recorded: without any adverse effects
Visible signs of toxicity, clinically relevant systemic or regional/local responses related to treatment ([4]; treated groups, both experiments): Neither visible signs of toxicity nor clinically relevant systemic or regional/local responses related to treatment were observed
